Assay results taken from patent US20250222114A1, “GLYCOCONJUGATED DRUG FOR THE TREATMENT OF HEPATOCELLULAR CARCINOMA” (priority 2021, published 2025).
Several values for one entry are separate records, joined by “and”; a condition that tells them apart may be missing. Equal values may be shown once.

Columns and labels:
[1] = system: Huh7 (human hepatic cell line); assay: Cell viability (CellTiter), Huh7; type: cell-based; conditions: for IC50: Huh7 cells
Experimental: (§1) In order to evaluate the therapeutic efficacy and potential cytotoxicity of the glycoconjugated drug of the invention for the treatment of HCC, cell viability assays were carried out in different cell lines. To this end, an in vitro model was designed. The cells used for in vitro assay were a murine hepatic cell line (Hepa1-6) and a human hepatic cell line (Huh7). Chemiograms were performed using increasing doses of the compound 4-MU as well as the glycosylated compound 4MUR (0-2000 μM). Cell viability was measured by using the CellTiter kit (Promega Corporation). Proliferation was measured through a tritiated thymidine incorporation assay, by incubating the cells for 48 h with either one of the compounds (4MU/4MUR) or culture medium (RPMI) in the presence of 3H-thymidine (Migliore-LaClaustra).

[2] = system: CFSC-2G (Rat hepatic stellate cell line); assay: Cell viability, CFSC-2G; type: cell-based; conditions: CFSC-2G cells
Experimental: as §1, with “lines.” for “lines. To this end, an in vitro model was designed. The cells used for in vitro assay were a murine hepatic cell line (Hepa1-6) and a human hepatic cell line (Huh7).”

[3] = system: IHH (human hepatocytes cell line); assay: Cell viability, IHH; type: cell-based; conditions: IHH cells
Experimental: as §1, with “lines.” for “lines. To this end, an in vitro model was designed. The cells used for in vitro assay were a murine hepatic cell line (Hepa1-6) and a human hepatic cell line (Huh7).”

Hepa129 cells [4] = assay: Proliferation by 3H-thymidine incorporation, Hepa129; type: cell-based, murine; conditions: for dose at which proliferation was significantly decreased: Hepa129, 48 h, 3H-thymidine
Experimental: Chemiograms were performed using increasing doses of the compound 4-MU as well as the glycosylated compound 4MUR (0-2000 μM). Cell viability was measured by using the CellTiter kit (Promega Corporation). Proliferation was measured through a tritiated thymidine incorporation assay, by incubating the cells for 48 h with either one of the compounds (4MU/4MUR) or culture medium (RPMI) in the presence of 3H-thymidine (Migliore-LaClaustra). After incubation, cells were harvested and centrifuged to remove ^3H-thymidine from the supernatant. The cell pellet was lysed with sterile distilled water (200 μl) and said volume was added to paper filters for retaining cell DNA with incorporated ^3H-thymidine. Each paper filter was impregnated in a tube containing scintillation liquid and each sample was run and read using a liquid scintillator counter (Beckman) detecting […] per minute emitted by tritium (^3H). Results are expressed as counts per minute (cpm) for each sample. Proliferation capacity of murine Hepa129 cells treated with 4MU and 4MUR was evaluated, as measured by ^3H-thymidine incorporation.

Hepa129 cells [5] = assay: Apoptosis by acridine orange/ethidium bromide staining, Hepa129; type: cell-based, murine; conditions: 48h; for induction of apoptosis: Hepa129, 0.1 mM; for cells showing death by apoptosis: Hepa129, 1 mM
Experimental: On the other hand, it was examined if growth inhibition by 4MUR was due to induction of apoptosis. To this end, cells were stained with an orange solution of acridine-ethidium bromide (Acridine Orange (NA)/Ethidium Bromide (BrEt) staining) and were then visualized by fluorescence microscopy to analyze their morphological characteristics. Briefly, after 48h of treatment, the cells were incubated with a mixture of NA/BrEt (1 ug/ml) and were then observed under a fluorescence microscope (Nikon). Viable cells are permeable to NA and are stained green. Cells with an altered plasma membrane allow BrEt to enter, which displaces NA, staining the cell orange. The percentage of viable or apoptotic cells was counted for each treatment.

HAS2 [6] = assay: HAS2 mRNA expression (RT-qPCR), Huh7; type: cell-based, human; conditions: Huh7 cells
Experimental: (§2) Since HAS mRNA levels often correspond to the activity of hyaluronan synthesis, the effect of 4MUR on HAS2 and HAS3 expression was assessed. To this end, cells with a concentration of 100,000 cells/ml were cultured on 6-well plates and treated with 4MUR (500 μM) for 24 h. Total RNA was extracted using the TriReagent (Sigma Aldrich) according to the manufacture's protocol. RNA was quantified at 260 nm in a DU®730 spectrophotometer (Beckman Coulter, Fullerton, CA, USA). The RNA purity was evaluated according to MIQE guidelines by measuring the ratio A260/A280. […] RT-qPCR for HAS2, HAS3 genes was performed using iQ SYBR Green Supermix protocol (Bio-Rad Laboratories, Milan, Italy). Each PCR amplification was carried out following manufactures instructions (iQ SYBR Green Supermix-Bio-Rad) in a Bio-Rad iQ5 real-time PCR detection system (iCycler IQ5 software, version 3.1; Bio-Rad) Expression was normalized to actin with two reference genes.

HAS3 [7] = assay: HAS3 mRNA expression (RT-qPCR), Huh7; type: cell-based, human; conditions: Huh7 cells
Experimental: as §2

HAS2 [8] = assay: HAS2 mRNA expression (RT-qPCR), CFSC-2G; type: cell-based, rat; conditions: CFSC-2G cells
Experimental: as §2

HAS3 [9] = assay: HAS3 mRNA expression (RT-qPCR), CFSC-2G; type: cell-based, rat; conditions: CFSC-2G cells
Experimental: as §2

HA in CFSC-2G cells = assay: HA content by flow cytometry, CFSC-2G; type: cell-based, rat; conditions: 0.25-1 mM, 48 h
Experimental: The levels of HA were quantified in the activated stellate cells CFSC-2G. For this goal, HA was detected by incubation with HA-fluorescein iso-thiocyanate (FITC) (20 μg/100 μL, Calbiochem SA, Bs. As., Argentina). Cells were treated with 4MU or 4MUR 0.25-1 mM and fixed were analyzed by flow cytometry with a FACS Accuri, BD (Becton Dickinson Immunocytometry Systems), using the BD Accuri 6C™ software.

HA in Hepa129 cells = assay: HA content by flow cytometry, Hepa129; type: cell-based, murine; conditions: 48 h
[10] = system: orthotopic Hepa129 tumors; assay: Orthotopic hepatocellular carcinoma model associated with advanced fibrosis induced by TAA; type: in vivo, C3H/He mice; conditions: for tumor volume: 20 mg/Kg i.p. 3 times a week, day 21 post Hepa129 inoculation; for animals in which tumors were not detected macroscopically: day 21 post-Hepa129; for animal survival: Day 20, FIG. 12C; for fibrosis degree measured by collagen deposits (Sirius red): liver sections
Experimental: To assess the in vivo antitumoral efficacy of 4MUR, an orthotopic tumor model associated with advanced fibrosis induced by TAA was established
C3H/He mice were intraperitoneally (i.p.) treated with 20 mg/kg thioacetamide (TAA) 3 times a week, for 4 weeks, in order to induce liver fibrosis. On day 28, mice were anesthetized and underwent surgery and orthotopic tumors were established by subcapsular intrahepatic inoculation of 1.25×10^5 Hepa129 cells into the left lobe of the liver (Day 0).
Between day 5 and day 7 post-administration of the cells, animals were again subjected to surgery for observing tumor development. Mice were divided into 3 groups (n=5) and each group received: (1) Saline solution (control); (2) 4MU dissolved in water, at a dose of 20 mg/Kg; (3) 4MUR dissolved in water at a dose of 20 mg/Kg. Intraperitoneal administration for different groups began on day 5 and was performed 3 times a week, until the end of the experiment on day 21 post Hepa129 inoculation. On day 21, animals were sacrificed, mice weight was recorded and ascites grade (mild, moderated, severe, and hemorrhagic), as well as tumor volume (mm^3), was calculated by the formula π/6×larger diameter×(smaller diameter)^2, by caliber measurement.
The 4MUR treatment on liver fibrogenesis was evaluated in the animal model. […] To assess the extent of liver fibrosis, formalin-fixed liver samples were embedded in paraffin and 5 μm sections were stained by Sirius Red for detection of fibrillar collagen. Quantitative analysis of Sirius red stained area was performed by computerized morphometric analysis. About 50 light microscope images (100× magnification) per specimen were captured and analyzed using the color threshold detection system developed in ImageJ software (NIH, USA). The results were expressed as percentage of positive area. Collagen deposition was quantified by morphometric analysis and densitometry.
To further understand the 4MUR effect on HCC, HA expression was evaluated in liver tissue sections of mice from the different groups by staining with an HA-binding protein (HA-BP). Negative controls were stained with bHA-BP and pretreated with 100 U/ml Streptomyces hyaluronidase (#385931, Calbiochem) at 37° C. for 30 min. Peroxidase complex (Sigma) 1:10 in PBS was used for developing. The signal was detected by 0.1% diaminobenzidine (Sigma-Aldrich, Buenos Aires, Argentina), 4% glucose, 0.08% ClNH4, 5% nickel ammonium sulfate in 0.2 M AcNa and 0.05% H2O2.

Toxicity study in mice = type: in vivo, C3Hj mice; conditions: for animal body weight: more than 20 days
Experimental: In order to evaluate the toxicity of the compound of the invention, an in vivo assay with mice was carried out. Animals treated with 4MUR were kept healthy during all the experimental protocol.
Briefly, C3Hj mice untreated (n=4) or treated with 4MU (n=4) or 4MUR (n=5) were used to assess its toxicology profile. Mice weight was supervised for more than 20 days. At the end of the experiments, healthy mice or mice receiving 4MU/4MUR were sacrificed to collect liver, spleen, heart, lung, and kidney samples. Tissue sections from liver, spleen, heart, and lungs were paraffin-embedded and H&E staining procedure was performed using standard protocols.

[11] = system: Hepa1-6 (murine hepatic cell line); assay: Cell viability, Hepa1-6; type: cell-based; conditions: Hepa 1.6 cells, compared with 4-MU
Experimental: In order to evaluate the therapeutic efficacy and potential cytotoxicity of the glycoconjugated drug of the invention for the treatment of HCC, cell viability assays were carried out in different cell lines.
To this end, an in vitro model was designed. The cells used for in vitro assay were a murine hepatic cell line (Hepa1-6) and a human hepatic cell line (Huh7).
Chemiograms were performed using increasing doses of the compound 4-MU as well as the glycosylated compound 4MUR (0-2000 μM). Cell viability was measured by using the CellTiter kit (Promega Corporation). Proliferation was measured through a tritiated thymidine incorporation assay, by incubating the cells for 48 h with either one of the compounds (4MU/4MUR) or culture medium (RPMI) in the presence of 3H-thymidine (Migliore-LaClaustra).

[12] = system: α-SMA, TGF-β, COL1A2, TIMP-1, MMP-9 in CFSC-2G cells; assay: Fibrotic-related gene expression by qPCR, CFSC-2G; type: cell-based, rat; conditions: 48 h
Experimental: The effect of 4MUR on liver fibrogenesis was assessed by the expression of the fibrotic-related genes including α-SMA, TGF-β, profibrogenic (COL1A2 and TIMP-1), and the antifibrogenic gene matrix metalloproteinase (MMP-9) on CFSC-2G cells by qPCR.

[13] = system: orthotopic Hepa129 tumors; assay: Orthotopic hepatocellular carcinoma model associated with advanced fibrosis induced by TAA; type: in vivo, C3H/He mice; conditions: oral administration 200 mg/kg/day

Structure (SMILES): Cc1cc(=O)oc2cc(O)ccc12 [4MU, 4-Methylumbelliferone, reference compound]
- IC50 ([1]; Homo sapiens, Huh-7): > 2000 µM
- IC50 ([2]; Rattus norvegicus): 1160 µM
- IC50 ([3]; Homo sapiens, Hepatocyte): 486 µM
- lowered proliferation (Hepa129 cells [4]; Hepa129, 1 mM): 50%
- dose at which proliferation was significantly decreased (Hepa129 cells [4]): 1 mM
- induction of apoptosis (Hepa129 cells [5]): resistant
- cells showing death by apoptosis (Hepa129 cells [5]): 60%
- expression of HAS2 (HAS2 [6]): did not affect
- HAS3 up-regulation (HAS3 [7]): around 3.5 fold
- HAS2 upregulation (HAS2 [8]): around 5 fold
- HAS3 expression upregulation (HAS3 [9]): 4.2 fold
- HA level (HA in CFSC-2G cells): significantly decreased
- HA contents (HA in Hepa129 cells): significantly decreased
- tumor volume [10]: 243.8±94.0 mm^3
- animals in which tumors were not detected macroscopically ([10]; 20 mg/Kg i.p.): 20%
- animal survival [10]: 66% and 67%
- fibrosis degree measured by collagen deposits (Sirius red) ([10]; 20 mg/Kg i.p.): 0.53±0.04
- histology (H&E) of liver, kidney, lungs, spleen, heart (Toxicity study in mice): no induced tissue damage
- animal body weight (Toxicity study in mice): no significant changes

Structure (SMILES): Cc1cc(=O)oc2cc(O[C@@H]3O[C@H](CO[C@@H]4O[C@@H](C)[C@H](O)[C@@H](O)[C@H]4O)[C@@H](O)[C@H](O)[C@H]3O)ccc12 [4MUR, 4-methylumbelliferyl-rutinoside]
- increase of 4MU antitumoral effect by glycosylation ([1]; Huh7, 4MUR compared to 4MU): 2.2
- IC50 [1]: 488 µM
- IC50 [2]: > 2000 µM
- increase of IC50 values of 4MUR compared to 4MU [2]: 25.8 fold
- IC50 [3]: > 2000 µM
- increase of IC50 values of 4MUR compared to 4MU [3]: 6.2 fold
- in vitro antitumoral effect [11]: significantly higher than 4-MU
- lower dose for significant decrease of proliferation vs 4MU (Hepa129 cells [4]; Hepa129): 10 times
- proliferation (Hepa129 cells [4]; Hepa129, 1 mM): did not proliferate
- dose at which proliferation was significantly decreased (Hepa129 cells [4]): 0.1 mM
- induction of apoptosis (Hepa129 cells [5]): significantly induced apoptosis
- cells showing death by apoptosis (Hepa129 cells [5]): 100%
- expression of HAS2 (HAS2 [6]): significantly reduced
- expression of HAS3 (HAS3 [7]): significantly reduced
- HAS2 expression (HAS2 [8]): did not affect
- HAS3 expression down regulation (HAS3 [9]): 4.5 fold
- HA level (HA in CFSC-2G cells): significantly decreased
- HA contents (HA in Hepa129 cells): significantly decreased
- COL1A2 expression [12]: strongly downregulated
- MMP-9 expression [12]: not affected
- TGF-β expression [12]: strongly downregulated
- TIMP-1 expression [12]: strongly downregulated
- α-SMA expression [12]: strongly downregulated
- HA expression in liver tissue (HA-BP staining) ([10]; 20 mg/Kg i.p.): remarkable reduction
- tumor volume [10]: 113.5±77.8 mm^3
- animals in which tumors were not detected macroscopically ([10]; 20 mg/Kg i.p.): 60%
- animal survival [10]: 100%
- amount of ascitic fluid ([10]; compared with untreated mice and 4MU): significantly reduced
- efficacy against hepatocellular carcinoma ([10]; i.p. 20 mg/kg/day): efficient
- fibrosis degree measured by collagen deposits (Sirius red) ([10]; 20 mg/Kg i.p.): 0.21±0.02
- health of animals during the experimental protocol (Toxicity study in mice): kept healthy
- histology (H&E) of liver, kidney, lungs, spleen, heart (Toxicity study in mice): no induced tissue damage
- animal body weight (Toxicity study in mice): no significant changes
- efficacy against hepatocellular carcinoma [13]: efficient
